Test results: patent publication US20160022684A1, “BET INHIBITOR AND BRUTON'S TYROSINE KINASE INHIBITOR COMBINATIONS” (Pharmacyclics LLC, priority 2014, published 2016)

What was measured:
Type in all cases: cell-based
[1] = system: TMD8; assay: Combined drug treatment cell viability (CellTiter-Glo), ibrutinib with BET inhibitors, TMD8; settings: JQ1 20 nM, 3 days
Procedure: (§1) The DLBCL cell lines used during the experiments included TMD8, OCI-LY3, OCI-LY10, U-2932 and SU-DHL-2. DLBCL cells at either 1×10^4 cells or 2×10^4 cells were plated onto each well of a 96-W plate (Table 1). […] The 96-W plate was then incubated for 3 days. Cell viability was examined using a CellTiter-Glo assay. A 40 μL of CellTiter-Glo reagent was added directly into each well of the 96-W plate. The plate was then shaken on a Shaker ([…]) at speed 5 for 10-20 min at room temperature. Next, about 100 μL of the mixed medium was transferred to a white, non-transparent, flat bottom 96-W plate for assaying. […] Measurements were taken at room temperature. CellTiter-Glow reagents were thawed prior to use. Cells pre-plated onto a second 96-W plate and incubated at room temperature for 30 minutes were used for calibration purposes. […] CI is a quantitative description of the interaction property of the combination of two drugs.

[2] = system: OCI-LY10; assay: Combined drug treatment cell viability (CellTiter-Glo), ibrutinib with BET inhibitors, OCI-LY10; settings: OCI-LY-10, JQ1 1 uM, 3 days
Procedure: as §1

[3] = system: OCI-LY3; assay: Combined drug treatment cell viability (CellTiter-Glo), ibrutinib with BET inhibitors, OCI-LY3; settings: OCI-LY-3, JQ1 1 uM, 3 days
Procedure: as §1

[4] = system: U-2932; assay: Combined drug treatment cell viability (CellTiter-Glo), ibrutinib with BET inhibitors, U-2932; settings: U2932, JQ1 20 nM, 3 days
Procedure: as §1

[5] = system: SU-DHL-2; assay: Combined drug treatment cell viability (CellTiter-Glo), ibrutinib with BET inhibitors, SU-DHL-2; settings: JQ1 100 nM, 3 days
Procedure: as §1

[6] = ibrutinib 0 nM (BET inhibitor alone): I-BET151 200 nM, OTX015 100 nM
[7] = ibrutinib 0.0256 nM with I-BET151 200 nM, OTX015 100 nM or medium alone (row)
[8] = ibrutinib 0.64 nM with I-BET151 200 nM, OTX015 100 nM or medium alone (row)
[9] = ibrutinib 3.2 nM with I-BET151 200 nM, OTX015 100 nM or medium alone (row)
[10] = ibrutinib 16 nM with I-BET151 200 nM, OTX015 100 nM or medium alone (row)
[11] = ibrutinib 80 nM with I-BET151 200 nM, OTX015 100 nM or medium alone (row)
[12] = ibrutinib 400 nM with I-BET151 200 nM, OTX015 100 nM or medium alone (row)
[13] = ibrutinib 2000 nM with I-BET151 200 nM, OTX015 100 nM or medium alone (row)
[14] = ibrutinib 10000 nM with I-BET151 200 nM, OTX015 100 nM or medium alone (row)
[15] = ibrutinib […] with I-BET151 200 nM, OTX015 100 nM or medium alone (row)
[16] = ibrutinib 0 nM (BET inhibitor alone): I-BET151 5 uM, OTX015 1 uM
[17] = ibrutinib 0.0256 nM with I-BET151 5 uM, OTX015 1 uM or medium alone (row)
[18] = ibrutinib 0.64 nM with I-BET151 5 uM, OTX015 1 uM or medium alone (row)
[19] = ibrutinib 3.2 nM with I-BET151 5 uM, OTX015 1 uM or medium alone (row)
[20] = ibrutinib 16 nM with I-BET151 5 uM, OTX015 1 uM or medium alone (row)
[21] = ibrutinib 80 nM with I-BET151 5 uM, OTX015 1 uM or medium alone (row)
[22] = ibrutinib 400 nM with I-BET151 5 uM, OTX015 1 uM or medium alone (row)
[23] = ibrutinib 2000 nM with I-BET151 5 uM, OTX015 1 uM or medium alone (row)
[24] = ibrutinib 10000 nM with I-BET151 5 uM, OTX015 1 uM or medium alone (row)
[25] = ibrutinib […] with I-BET151 5 uM, OTX015 1 uM or medium alone (row)
[26] = ibrutinib 0 nM (BET inhibitor alone): I-BET151 200 nM, OTX015 50 nM (Table 2)
[27] = ibrutinib 0.0256 nM with I-BET151 200 nM, OTX015 50 nM (Table 2) or medium alone (row)
[28] = ibrutinib 0.64 nM with I-BET151 200 nM, OTX015 50 nM (Table 2) or medium alone (row)
[29] = ibrutinib 3.2 nM with I-BET151 200 nM, OTX015 50 nM (Table 2) or medium alone (row)
[30] = ibrutinib 16 nM with I-BET151 200 nM, OTX015 50 nM (Table 2) or medium alone (row)
[31] = ibrutinib 80 nM with I-BET151 200 nM, OTX015 50 nM (Table 2) or medium alone (row)
[32] = ibrutinib 400 nM with I-BET151 200 nM, OTX015 50 nM (Table 2) or medium alone (row)
[33] = ibrutinib 2000 nM with I-BET151 200 nM, OTX015 50 nM (Table 2) or medium alone (row)
[34] = ibrutinib 10000 nM with I-BET151 200 nM, OTX015 50 nM (Table 2) or medium alone (row)
[35] = ibrutinib […] with I-BET151 200 nM, OTX015 50 nM (Table 2) or medium alone (row)
[36] = ibrutinib 0 nM (BET inhibitor alone): I-BET151 2 uM, OTX015 1 uM (Table 2)
[37] = ibrutinib 0.0256 nM with I-BET151 2 uM, OTX015 1 uM (Table 2) or medium alone (row)
[38] = ibrutinib 10000 nM with I-BET151 2 uM, OTX015 1 uM (Table 2) or medium alone (row)
[39] = ibrutinib […] with I-BET151 2 uM, OTX015 1 uM (Table 2) or medium alone (row)

Question: What does the source list for `COc1cc2c(cc1-c1c(C)noc1C)ncc1[nH]c(=O)n([C@H](C)c3ccccn3)c12` [I-BET151]?
Answer: luminescent signals [1, 6]: 53526.63; luminescent signals [1, 7]: 14177.65; luminescent signals [1, 8]: 12722.72; luminescent signals [1, 9]: 11655.25; luminescent signals [1, 10]: 11328.42; luminescent signals [1, 11]: 11526.1; luminescent signals [1, 12]: 11191.36; luminescent signals [1, 13]: 11183.45; luminescent signals [1, 14]: 6995.257; luminescent signals [1, 15]: 13950.98; luminescent signals [2, 16]: 43633.29; luminescent signals [2, 17]: 41108.85; luminescent signals [2, 18]: 38594.93; luminescent signals [2, 19]: 31834.18; luminescent signals [2, 20]: 23382.58; luminescent signals [2, 21]: 21683.85; luminescent signals [2, 22]: 21781.14; luminescent signals [2, 23]: 22475.36; luminescent signals [2, 24]: 21920.51; luminescent signals [2, 25]: 38721.15; luminescent signals [3, 16]: 14156.55; luminescent signals [3, 17]: 15418.7; luminescent signals [3, 18]: 15156.3; luminescent signals [3, 19]: 13849.54; luminescent signals [3, 20]: 14914.89; luminescent signals [3, 21]: 13899.4; luminescent signals [3, 22]: 15392.46; luminescent signals [3, 23]: 13151.56; luminescent signals [3, 24]: 14424.2; luminescent signals [3, 25]: 12962.63; luminescent signals [4, 26]: 50367.82; luminescent signals [4, 27]: 45116.29; luminescent signals [4, 28]: 42565.61; luminescent signals [4, 29]: 43472.05; luminescent signals [4, 30]: 43980.61; luminescent signals [4, 31]: 43659.14; luminescent signals [4, 32]: 44468.08; luminescent signals [4, 33]: 42568.25; luminescent signals [4, 34]: 32015.12; luminescent signals [4, 35]: 44167.69; luminescent signals [5, 36]: 793.343; luminescent signals [5, 37]: 714.534; luminescent signals ([5]; ibrutinib 0.64 nM with I-BET151 2 uM, OTX015 1 uM (Table 2) or medium alone (row)): 704.027; luminescent signals ([5]; ibrutinib 3.2 nM with I-BET151 2 uM, OTX015 1 uM (Table 2) or medium alone (row)): 809.105; luminescent signals ([5]; ibrutinib 16 nM with I-BET151 2 uM, OTX015 1 uM (Table 2) or medium alone (row)): 843.256; luminescent signals ([5]; ibrutinib 80 nM with I-BET151 2 uM, OTX015 1 uM (Table 2) or medium alone (row)): 922.065; luminescent signals ([5]; ibrutinib 400 nM with I-BET151 2 uM, OTX015 1 uM (Table 2) or medium alone (row)): 798.597; luminescent signals ([5]; ibrutinib 2000 nM with I-BET151 2 uM, OTX015 1 uM (Table 2) or medium alone (row)): 717.161; luminescent signals [5, 38]: 585.813; luminescent signals [5, 39]: 835.375

Question: Which luminescent signals [1, 6] does the source give for `Cc1sc2c(c1C)C(c1ccc(Cl)cc1)=N[C@@H](CC(=O)Nc1ccc(O)cc1)c1nnc(C)n1-2` [OTX015] here?
Answer: The luminescent signals was 47319.47.

Question: What about the luminescent signals [1, 7] of the same molecule?
Answer: The luminescent signals was 11004.22.

Question: What about the luminescent signals [1, 8] of the same molecule?
Answer: Its luminescent signals is 9847.13.

Question: What about the luminescent signals [1, 9] of the same molecule?
Answer: The luminescent signals was 9773.329.

Question: What about the luminescent signals [1, 10] of the same molecule?
Answer: Its luminescent signals is 9272.538.

Question: What about the luminescent signals [1, 11] of the same molecule?
Answer: The luminescent signals was 9472.854.

Question: What about the luminescent signals [1, 12] of the same molecule?
Answer: Its luminescent signals is 9301.531.

Question: What about the luminescent signals [1, 13] of the same molecule?
Answer: The luminescent signals was 10927.78.

Question: What about the luminescent signals [1, 14] of the same molecule?
Answer: Its luminescent signals is 7055.879.

Question: And the luminescent signals [1, 15]?
Answer: Its luminescent signals is 11191.36.

Question: And the luminescent signals [2, 16]?
Answer: Its luminescent signals is 45142.68.

Question: And the luminescent signals [2, 17]?
Answer: Its luminescent signals is 42481.51.

Question: What about the luminescent signals [2, 18] of the same molecule?
Answer: The luminescent signals was 40790.66.

Question: And the luminescent signals [2, 19]?
Answer: The luminescent signals was 33872.14.

Question: And the luminescent signals [2, 20]?
Answer: Its luminescent signals is 29764.67.

Question: And the luminescent signals [2, 21]?
Answer: Its luminescent signals is 25880.72.

Question: And the luminescent signals [2, 22]?
Answer: Its luminescent signals is 25433.68.

Question: What about the luminescent signals [2, 23] of the same molecule?
Answer: The luminescent signals was 24952.47.

Question: And the luminescent signals [2, 24]?
Answer: Its luminescent signals is 23945.32.

Question: And the luminescent signals [2, 25]?
Answer: The luminescent signals was 42647.18.

Question: What about the luminescent signals [3, 16] of the same molecule?
Answer: Its luminescent signals is 12422.08.

Question: What about the luminescent signals [3, 17] of the same molecule?
Answer: Its luminescent signals is 14387.47.

Question: And the luminescent signals [3, 18]?
Answer: Its luminescent signals is 13925.64.

Question: And the luminescent signals [3, 19]?
Answer: Its luminescent signals is 14043.72.

Question: What about the luminescent signals [3, 20] of the same molecule?
Answer: Its luminescent signals is 13776.07.

Question: And the luminescent signals [3, 21]?
Answer: The luminescent signals was 14290.38.

Question: And the luminescent signals [3, 22]?
Answer: The luminescent signals was 15615.51.

Question: What about the luminescent signals [3, 23] of the same molecule?
Answer: The luminescent signals was 15793.94.

Question: And the luminescent signals [3, 24]?
Answer: Its luminescent signals is 14418.95.

Question: What about the luminescent signals [3, 25] of the same molecule?
Answer: Its luminescent signals is 12918.02.

Question: And the luminescent signals [4, 26]?
Answer: The luminescent signals was 55416.46.

Question: And the luminescent signals [4, 27]?
Answer: Its luminescent signals is 53427.04.

Question: What about the luminescent signals [4, 28] of the same molecule?
Answer: Its luminescent signals is 50299.31.

Question: What about the luminescent signals [4, 29] of the same molecule?
Answer: Its luminescent signals is 45013.52.

Question: What about the luminescent signals [4, 30] of the same molecule?
Answer: Its luminescent signals is 49095.12.

Question: What about the luminescent signals [4, 31] of the same molecule?
Answer: The luminescent signals was 44565.57.

Question: And the luminescent signals [4, 32]?
Answer: The luminescent signals was 48570.75.

Question: What about the luminescent signals [4, 33] of the same molecule?
Answer: The luminescent signals was 44022.77.

Question: And the luminescent signals [4, 34]?
Answer: Its luminescent signals is 33140.26.

Question: What about the luminescent signals [4, 35] of the same molecule?
Answer: Its luminescent signals is 51182.03.

Question: And the luminescent signals [5, 36]?
Answer: The luminescent signals was 945.707.

Question: And the luminescent signals [5, 37]?
Answer: Its luminescent signals is 1016.636.

Question: And the luminescent signals [5, 38]?
Answer: Its luminescent signals is 782.836.

Question: And the luminescent signals [5, 39]?
Answer: Its luminescent signals is 1087.564.
